Source: US20240238423A9, “TETRAHYDROISOQUINOLINE HETEROBIFUNCTIONAL BCL-XL DEGRADERS” (Treeline Biosciences, Inc., priority 2022, published 2024)
Like-named read-outs stand apart in the source and are kept apart here.

Target: T1, Human BCL-XL protein (N-terminal HiBiT tagged BCL-XL in HT1080 cells) (Homo sapiens, UniProt Q07817)
T1 construct: expressed in transfected cells; host or cells: HT-1080 (ATCC CCL-121), stably transduced with lentivirus pLV-UBC-N-HiBiT-BCL-XL-PGK-puro and selected with puromycin
T1 sequence (Q07817 whole entry): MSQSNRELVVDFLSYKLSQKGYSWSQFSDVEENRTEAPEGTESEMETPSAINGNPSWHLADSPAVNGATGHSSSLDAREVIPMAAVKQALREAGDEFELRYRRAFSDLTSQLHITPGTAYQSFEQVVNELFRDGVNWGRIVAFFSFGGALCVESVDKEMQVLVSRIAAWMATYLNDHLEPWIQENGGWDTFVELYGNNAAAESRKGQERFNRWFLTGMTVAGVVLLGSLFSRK
Assay: HiBiT based degradation assay
Assay type: cell-based
Conditions: HT1080 cells expressing HiBiT-BCL-XL; for Ymin (24 h) / Ymin (6 h): BCL-XL degradation normalized with DMSO control; for DC50: BCL-XL degradation
Outline: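 HT1080 cells stably transduced by lentivirus with N-terminally HiBiT-tagged human BCL-XL and kept under 1 μg/mL puromycin selection were seeded at three thousand cells per well in 40 μL RPMI 1640 into 384-well plates pre-spotted with compounds across a concentration range. Luminescence was read on a PHERAstar FSX, normalized to DMSO, and fitted with a four-parameter logistic model.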

Compound	Ymin (24 h)	DC50 (24 h, read-out: EC50 (24 h)) [nM]	Ymin (6 h)	DC50 (6 h, read-out: EC50 (6 h)) [nM]
Cc1c(OCCCC2CCN(CC3CCN(c4ccc5c(C6CCC(=O)NC6=O)nn(C)c5c4)CC3)CC2)cccc1-c1ccc(N2CCc3cccc(C(=O)Nc4nc5ccccc5s4)c3C2)nc1C(=O)O (stereo not shown) [Compound 247, 6-[8-(1,3-benzothiazol-2-ylcarbamoyl)-3,4-dihydro-1H-isoquinolin-2-yl]-3-[3-[3-[1-[[1-[3-(2,6-dioxo-3-piperidyl)-1-methyl-indazol-6-yl]-4-piperidyl]methyl]-4-piperidyl]propoxy]-2-methyl-phenyl]pyridine-2-carboxylic acid]	A (Ymin < 50%)	< 100		
Cc1c(OCCC2CCN(CC(=O)Nc3ccc4c(C5CCC(=O)NC5=O)nn(C)c4c3)CC2)cccc1-c1ccc(N2CCc3cccc(C(=O)Nc4nc5ccccc5s4)c3C2)nc1C(=O)O (stereo not shown) [Compound 106, 6-[8-(1,3-benzothiazol-2-ylcarbamoyl)-3,4-dihydro-1H-isoquinolin-2-yl]-3-[3-[2-[1-[2-[[3-(2,6-dioxo-3-piperidyl)-1-methyl-indazol-6-yl]amino]-2-oxo-ethyl]-4-piperidyl]ethoxy]-2-methyl-phenyl]pyridine-2-carboxylic acid]	A (Ymin < 50%)	< 100	A (Ymin < 50%)	< 100
Cc1c(OCCCCCCN2CCN(c3ccc4c(C5CCC(=O)NC5=O)nn(C)c4c3)CC2)cccc1-c1ccc(N2CCc3cccc(C(=O)Nc4nc5ccccc5s4)c3C2)nc1C(=O)O (stereo not shown) [Compound 222, 6-(8-(benzo[d]thiazol-2-ylcarbamoyl)-3,4-dihydroisoquinolin-2(1H)-yl)-3-(3-((6-(4-(3-(2,6-dioxopiperidin-3-yl)-1-methyl-1H-indazol-6-yl)piperazin-1-yl)hexyl)oxy)-2-methylphenyl)picolinic acid]	A (Ymin < 50%)	< 100	B (50% ≤ Ymin < 70%)	< 100
Cc1c(O[C@@H]2CCC3(CCN(CC(=O)Nc4ccc5c(C6CCC(=O)NC6=O)nn(C)c5c4)CC3)C2)cccc1-c1ccc(N2CCc3cccc(C(=O)Nc4nc5ccccc5s4)c3C2)nc1C(=O)O (single isomer, unassigned) [Compound 268b]	A (Ymin < 50%)	< 100		
Cc1c(OCCC2CCN(CCN3CCC(c4ccc5c(C6CCC(=O)NC6=O)nn(C)c5c4)CC3)CC2)cccc1-c1ccc(N2CCc3cccc(C(=O)Nc4nc5ccccc5s4)c3C2)nc1C(=O)O (stereo not shown) [Compound 248, 6-[8-(1,3-benzothiazol-2-ylcarbamoyl)-3,4-dihydro-1H-isoquinolin-2-yl]-3-[3-[2-[1-[2-[4-[3-(2,6-dioxo-3-piperidyl)-1-methyl-indazol-6-yl]-1-piperidyl]ethyl]-4-piperidyl]ethoxy]-2-methyl-phenyl]pyridine-2-carboxylic acid]	A (Ymin < 50%)	< 100		
Cc1c(Oc2cccc(CCCN3CCN(c4ccc5c(C6CCC(=O)NC6=O)nn(C)c5c4)CC3)c2)cccc1-c1ccc(N2CCc3cccc(C(=O)Nc4nc5ccccc5s4)c3C2)nc1C(=O)O (stereo not shown) [Compound 195, 6-[8-(1,3-benzothiazol-2-ylcarbamoyl)-3,4-dihydro-1H-isoquinolin-2-yl]-3-[3-[3-[3-[4-[3-(2,6-dioxo-3-piperidyl)-1-methyl-indazol-6-yl]piperazin-1-yl]propyl]phenoxy]-2-methyl-phenyl]pyridine-2-carboxylic acid]	B (50% ≤ Ymin < 70%)	< 100	C (Ymin ≥ 70%)	< 100
Cc1c(OCCC2CCN(CCN3CCN(c4ccc5c(C6CCC(=O)NC6=O)nn(C)c5c4)CC3)CC2)cccc1-c1ccc(N2CCc3cccc(C(=O)Nc4nc5ccccc5s4)c3C2)nc1C(=O)O (stereo not shown) [Compound 232, 6-[8-(1,3-benzothiazol-2-ylcarbamoyl)-3,4-dihydro-1H-isoquinolin-2-yl]-3-[3-[2-[1-[2-[4-[3-(2,6-dioxo-3-piperidyl)-1-methyl-indazol-6-yl]piperazin-1-yl]ethyl]-4-piperidyl]ethoxy]-2-methyl-phenyl]pyridine-2-carboxylic acid]	A (Ymin < 50%)	< 100		
Cc1c(O[C@H](C)CCC2CCN(CC(=O)Nc3cccc4c(C5CCC(=O)NC5=O)nn(C)c34)CC2)cccc1-c1ccc(N2CCc3cccc(C(=O)Nc4nc5ccccc5s4)c3C2)nc1C(=O)O (stereo partly drawn) [Compound 169b, 6-[8-(1,3-benzothiazol-2-ylcarbamoyl)-3,4-dihydro-1H-isoquinolin-2-yl]-3-[3-[(1R)-3-[1-[2-[[3-(2,6-dioxo-3-piperidyl)-1-methyl-indazol-7-yl]amino]-2-oxo-ethyl]-4-piperidyl]-1-methyl-propoxy]-2-methyl-phenyl] pyridine-2-carboxylic acid]	B (50% ≤ Ymin < 70%)	< 100	C (Ymin ≥ 70%)	< 100

Results, then the compound that gave them:

Ymin (24 h)	DC50 (24 h, read-out: EC50 (24 h)) [nM]	Ymin (6 h)	DC50 (6 h, read-out: EC50 (6 h)) [nM]	Compound
A (Ymin < 50%)	< 100			Cc1c(O[C@H]2CC[C@H](CCCCN3CCN(c4cc5c(cc4F)c(C4CCC(=O)NC4=O)nn5C)CC3)CC2)cccc1-c1ccc(N2CCc3cccc(C(=O)Nc4nc5ccccc5s4)c3C2)nc1C(=O)O (stereo partly shown) [Compound 296a, 6-(8-(benzo[d]thiazol-2-ylcarbamoyl)-3,4-dihydroisoquinolin-2(1H)-yl)-3-(3-(((1s,4r)-4-(4-(4-(3-(2,6-dioxopiperidin-3-yl)-5-fluoro-1-methyl-1H-indazol-6-yl)piperazin-1-yl)butyl)cyclohexyl)oxy)-2-methylphenyl)picolinic acid]
A (Ymin < 50%)	< 100			Cc1c(O[C@H]2CC[C@H](CC[C@@H](C)N3CCN(c4cccc5c(C6CCC(=O)NC6=O)nn(C)c45)CC3)CC2)cccc1-c1ccc(N2CCc3cccc(C(=O)Nc4nc5ccccc5s4)c3C2)nc1C(=O)O (single isomer, unassigned) [Compound 283b]
B (50% ≤ Ymin < 70%)	100 to 1000			Cc1c(OCCCc2ccc(CC(=O)Nc3ccc4c(C5CCC(=O)NC5=O)nn(C)c4c3)cn2)cccc1-c1ccc(N2CCc3cccc(C(=O)Nc4nc5ccccc5s4)c3C2)nc1C(=O)O (stereo not shown) [Compound 309, 6-[8-(1,3-benzothiazol-2-ylcarbamoyl)-3,4-dihydro-1H-isoquinolin-2-yl]-3-[3-[3-[5-[2-[[3-(2,6-dioxo-3-piperidyl)-1-methyl-indazol-6-yl]amino]-2-oxo-ethyl]-2-pyridyl]propoxy]-2-methyl-phenyl]pyridine-2-carboxylic acid]
A (Ymin < 50%)	< 100			Cc1c(O[C@H]2CC[C@H](CCCCN3CC[C@H](c4cccc5c(C6CCC(=O)NC6=O)nn(C)c45)C3)CC2)cccc1-c1ccc(N2CCc3cccc(C(=O)Nc4nc5ccccc5s4)c3C2)nc1C(=O)O (single isomer, unassigned) [Compound 321a]
A (Ymin < 50%)	< 100			Cc1c(O[C@H]2CC[C@H]([C@H](C)CCN3CCN(c4ccc5c(C6CCC(=O)NC6=O)nn(C)c5c4)CC3)CC2)cccc1-c1ccc(N2CCc3cccc(C(=O)Nc4nc5ccccc5s4)c3C2)nc1C(=O)O (single isomer, unassigned) [Compound 310a]
